In ChEMBL document CHEMBL2331252, “Facile one-pot synthesis of novel dispirooxindole-pyrrolidine derivatives and their antimicrobial and anticancer activity against A549 human lung adenocarcinoma cancer cell line” (Bioorg Med Chem Lett, 2013):
≈ marks a conversion by molar mass, not a printed value. Calls of active or inactive are those of the source. No cut-off for these calls is given here.

How the values were obtained:
Shigella flexneri [1] = experiment: Antibacterial activity against Shigella flexneri MTCC 1457 at 1 mg/disc after 24 hrs by disc diffusion method; format: functional
Klebsiella aerogenes [2] = experiment: Antibacterial activity against Enterobacter aerogenes MTCC 111 at 1 mg/disc after 24 hrs by disc diffusion method; format: functional
Klebsiella pneumoniae [3] = experiment: Antibacterial activity against Klebsiella pneumoniae MTCC 109 at 1 mg/disc after 24 hrs by disc diffusion method; format: functional
Salmonella typhimurium [4] = experiment: Antibacterial activity against Salmonella typhimurium MTCC 1251 at 1 mg/disc after 24 hrs by disc diffusion method; format: functional, Salmonella enterica subsp. enterica serovar Typhimurium; settings: for inhibition: Salmonella enterica subsp. enterica serovar Typhimurium
Candida albicans [5] = experiment: Antifungal activity against Candida albicans MTCC 227 at 1 mg/disc after 48 hrs by disc diffusion method; format: functional
Micrococcus luteus [6] = experiment: Antibacterial activity against Micrococcus luteus MTCC 106 at 1 mg/disc after 24 hrs by disc diffusion method; format: functional
[7] = Antifungal activity against Malassezia pachydermatis at 1 mg/disc after 48 hrs by disc diffusion method; format: functional
Staphylococcus aureus [8] = experiment: Antibacterial activity against methicillin-resistant Staphylococcus aureus at 1 mg/disc after 24 hrs by disc diffusion method; format: functional
A549 [9] = experiment: Cytotoxicity against human A549 cells assessed as cell death at 200 ug/ml by MTT assay; format: functional
Staphylococcus aureus [10] = experiment: Antibacterial activity against Staphylococcus aureus MTCC 96 at 1 mg/disc after 24 hrs by disc diffusion method; format: functional
A549 [11] = experiment: Cytotoxicity against human A549 cells assessed as cell death at 50 ug/ml by MTT assay; format: functional
A549 [12] = experiment: Cytotoxicity against human A549 cells assessed as cell death at 100 ug/ml by MTT assay; format: functional
Proteus vulgaris [13] = experiment: Antibacterial activity against Proteus vulgaris MTCC 1771 at 1 mg/disc after 24 hrs by disc diffusion method; format: functional
Shigella flexneri [14] = experiment: Antibacterial activity against Shigella flexneri MTCC 1457 after 24 hrs; format: functional; settings: MTCC 1457, 24 h
Proteus vulgaris [15] = experiment: Antibacterial activity against Proteus vulgaris MTCC 1771 after 24 hrs; format: functional
Staphylococcus aureus [16] = experiment: Antibacterial activity against Staphylococcus aureus MTCC 96 after 24 hrs; format: functional; settings: MTCC 96, 24 h
Candida albicans [17] = experiment: Antifungal activity against Candida albicans MTCC 227 after 48 to 72 hrs; format: functional
Klebsiella pneumoniae [18] = experiment: Antibacterial activity against Klebsiella pneumoniae MTCC 109 after 24 hrs; format: functional; settings: MTCC 109, 24 h
Micrococcus luteus [19] = experiment: Antibacterial activity against Micrococcus luteus MTCC 106 after 24 hrs; format: functional; settings: MTCC 106, 24 h
Staphylococcus aureus [20] = experiment: Antibacterial activity against methicillin-resistant Staphylococcus aureus after 24 hrs; format: functional
Klebsiella aerogenes [21] = experiment: Antibacterial activity against Enterobacter aerogenes MTCC 111 after 24 hrs; format: functional
Salmonella typhimurium [22] = experiment: Antibacterial activity against Salmonella typhimurium MTCC 1251 after 24 hrs; format: functional, Salmonella enterica subsp. enterica serovar Typhimurium; settings: Salmonella enterica, MTCC 1251, 24 h

SMILES | inhibition (Shigella flexneri [1]) | inhibition (Klebsiella aerogenes [2]) | inhibition (Klebsiella pneumoniae [3]) | inhibition zone (IZ) (Salmonella typhimurium [4]) [mm] | inhibition zone (IZ) (Candida albicans [5]) [mm] | inhibition zone (IZ) (Micrococcus luteus [6]) [mm] | inhibition zone (IZ) [7] [mm] | inhibition (Staphylococcus aureus [8]) | Activity (A549 [9]) [%] | Activity (A549 [11]) [%] | Activity (A549 [12]) [%] | inhibition (Proteus vulgaris [13]) | inhibition zone (IZ) (Klebsiella pneumoniae [3]) [mm] | inhibition zone (IZ) (Staphylococcus aureus [10]) [mm] | inhibition zone (IZ) (Proteus vulgaris [13]) [mm] | inhibition (Micrococcus luteus [6]) | other results
CN1C(=O)[C@@]2(c3cc([N+](=O)[O-])ccc31)N(C)C[C@](C#N)(C(=O)c1c[nH]c3ccccc13)[C@]21C(=O)Nc2ccccc21 | inactive | inactive | inactive | 8 | 9 | 7 | 12 | inactive | 60.22 | 9.27 | 24.36 | inactive | – | – | – | – | inhibition (Staphylococcus aureus [10]): inactive
CN1C[C@](C#N)(C(=O)c2c[nH]c3ccccc23)[C@]2(C(=O)Nc3ccccc32)[C@@]12C(=O)Nc1ccc(Cl)cc12 | – | inactive | – | 8 | 9 | 10 | – | – | 13.15 | 3.58 | 7.38 | – | 14 | 9 | 13 | – | MIC (Shigella flexneri [14]): 1000 µg/mL (≈ 1920 µM); MIC (Proteus vulgaris [15]; MTCC 1771, 24 h): 250 µg/mL (≈ 479 µM); MIC (Staphylococcus aureus [16]): 500 µg/mL (≈ 958 µM); inhibition zone (IZ) (Shigella flexneri [1]): 11 mm; MIC (Candida albicans [17]): 500 µg/mL (≈ 958 µM); MIC (Klebsiella pneumoniae [18]): 125 µg/mL (≈ 239 µM); MIC (Micrococcus luteus [19]): 1000 µg/mL (≈ 1920 µM); inhibition [7]: inactive; inhibition zone (IZ) (Staphylococcus aureus [8]): 8 mm; MIC (Staphylococcus aureus [20]): 500 µg/mL (≈ 958 µM); MIC (Klebsiella aerogenes [21]): inactive; MIC (Salmonella typhimurium [22]): 500 µg/mL (≈ 958 µM)
CN1C[C@](C#N)(C(=O)c2c[nH]c3ccccc23)[C@]2(C(=O)Nc3ccccc32)[C@@]12C(=O)N(c1ccccc1)c1ccccc12 | inactive | inactive | – | – | 13 | – | 14 | inactive | 47.89 | 39.41 | 41.58 | inactive | 9 | 7 | – | inactive | inhibition (Salmonella typhimurium [4]): inactive
CN1C[C@](C#N)(C(=O)c2c[nH]c3ccccc23)[C@]2(C(=O)Nc3ccccc32)[C@@]12C(=O)Nc1ccc([N+](=O)[O-])cc12 | inactive | – | inactive | 8 | 9 | – | – | inactive | 55.26 | 18.37 | 36.65 | inactive | – | – | – | inactive | inhibition zone (IZ) (Klebsiella aerogenes [2]): 8 mm; inhibition [7]: inactive; inhibition (Staphylococcus aureus [10]): inactive
CC(=O)N1CCN(c2ccc(OCC3COC(Cn4ccnc4)(c4ccc(Cl)cc4Cl)O3)cc2)CC1 (stereo not drawn) [KETOCONAZOLE] | – | – | – | – | 28 | – | 26 | – | – | – | – | – | – | – | – | – | MIC (Candida albicans [17]): 25 µg/mL (≈ 47 µM)
CN[C@@H]1[C@H](O[C@H]2[C@H](O[C@H]3[C@H](O)[C@@H](O)[C@H](N=C(N)N)[C@@H](O)[C@@H]3N=C(N)N)O[C@@H](C)[C@]2(O)C=O)O[C@@H](CO)[C@H](O)[C@H]1O [STREPTOMYCIN] | – | – | – | 18 | – | 26 | – | – | – | – | – | – | 20 | 14 | 30 | – | MIC (Shigella flexneri [14]): 6.25 µg/mL (≈ 10.7 µM); MIC (Proteus vulgaris [15]): inactive; MIC (Staphylococcus aureus [16]): 6.25 µg/mL (≈ 10.7 µM); inhibition zone (IZ) (Shigella flexneri [1]): 30 mm; inhibition zone (IZ) (Klebsiella aerogenes [2]): 22 mm; MIC (Klebsiella pneumoniae [18]): 6.25 µg/mL (≈ 10.7 µM); MIC (Micrococcus luteus [19]): 6.25 µg/mL (≈ 10.7 µM); inhibition zone (IZ) (Staphylococcus aureus [8]): 30 mm; MIC (Staphylococcus aureus [20]): 6.25 µg/mL (≈ 10.7 µM); MIC (Klebsiella aerogenes [21]; MTCC 111, 24 h): 25 µg/mL (≈ 43 µM); MIC (Salmonella typhimurium [22]): 30 µg/mL (≈ 51.6 µM)
CCOC(=O)CN1C(=O)[C@@]2(c3ccccc31)N(C)C[C@](C#N)(C(=O)c1c[nH]c3ccccc13)[C@]21C(=O)Nc2ccccc21 | inactive | inactive | inactive | – | 9 | – | 11 | inactive | 27.78 | 11.04 | 21.25 | – | – | 9 | 8 | inactive | inhibition (Salmonella typhimurium [4]): inactive
